# Results published in patent US11673925B2, “Oligopeptide with anti-inflammatory activity, preparation method, and application thereof” (NANJING UNIVERSITY OF FINANCE AND ECONOMICS, priority 2021, dated 2023).
# Where a SMILES comes first, the peptide text is derived from it.
# System: RAW 264.7 normal macrophages
# Type: cell-based
# From the text: (4) detection of effects of respective components (WGPH-I, WGPH-II, and WGPH-III) on the proliferation activity of RAW 264.7 normal macrophages by a methyl thiazolyl tetrazolium (MTT) assay
# RAW 264.7 macrophages in a logarithmic growth phase are taken and prepared into a cell suspension of 3×10^4 cells/mL in a RPIM 1640 culture medium containing 10% FBS. Sample wells are set in a 96-well plate (also referred to as 96-well tissue culture plates), and 100 microliters (μL) of cell suspension are added to each sample well, and the cells are cultured in a cell incubator for 12 h to make the cells adhere to the wall. After removing the culture medium in the sample wells, different components WGPH-I (>3 kDa), WGPH-II (1˜3 kDa), and WGPH-III (<1 kDa) are dissolved in RPIM 1640 culture medium containing 10% FBS to prepare different concentrations of oligopeptide culture medium (0, 50, 100, 200, and 300 μg/mL) respectively, and then added to respective sample wells, 100 μL per well. A blank well is set, and compared with the sample wells, there is no cell, with 100 μL PBS instead of the oligopeptide culture medium. A control well is set, compared with the sample wells, there is cells, with 100 μL PBS instead of oligopeptide culture medium. […] The absorbance is measured at a wavelength of 570 nanometers (nm) in the microplate reader. […]
smiles,measurement,value
C[C@H](N)C(=O)N1CCC[C@H]1C(=O)N[C@@H](CCC(=O)O)C(=O)N1CCC[C@H]1C(=O)N[C@@H](CCC(=O)O)C(=O)N1CCC[C@H]1C(=O)N[C@@H](C)C(=O)N[C@@H](Cc1ccccc1)C(=O)O [oligopeptide] (H-APEPEPAF-OH),effect on the proliferation activity of macrophages,no effect
